According to US6984400B2, “Method of treating restenosis using bisphosphonate nanoparticles” (Yissum Research Development Company of the Hebrew …, priority 1998, dated 2006):

Key:
[1] = system: neointimal formation in balloon-injured rat carotid artery; assay: Rat carotid catheter (balloon) injury model of restenosis; format: in vivo; conditions: Example 2; 1.5 and 15 mg/kg day -1 and/or day +6; 14 days post injury; FIG. 4
Description: Animals were obtained and housed in the animal facilities of the Faculty of Medicine, The Hebrew University of Jerusalem, conforming to the standards for care and use of laboratory animals of the Hebrew University of Jerusalem. Male rats of Sabra strain weighing 350-420 g were used. The animals were fed standard laboratory chow and tap water ad libitum. All in vivo experiments were conducted under general anaesthesia achieved with 80 mg/kg ketamine and 5 mg/kg xylazine administered IP.
The distal left common and external carotid arteries were exposed through a midline incision in the neck. […]
The slides were examined microscopically by an investigator blinded to the type of the experimental group. Six to eight sections in each slide were evaluated by computerized morphometric analysis and the averaged section data were further used as a representative of a whole slide for comparisons between groups. The residual lumen, the area bounded by the internal elastic lamina (original lumen), and the area circumscribed by the external elastic lamina (“total arterial area”) were measured directly. The degree of neointimal thickening was expressed as the ratio between the area of the neointimal and the original lumen (% stenosis), and as the ratio between the neointimal area to the area of the media (N/M). […]

RAW 264 cells = assay: Growth/proliferation of RAW 264 cells in vitro; format: cell-based, murine; conditions: FIG. 6; 48 hours after treatment; proliferation in buffer = 100%
Description: The effect of ISA on the growth of RAW 264 cells was determined. RAW 264 cells, which are derived from the murine macrophage cell lines, were plated at 2×10^4 cells per well in 24-well plates and allowed to grow for approximately 24 hours in DMEM. The cells were then treated with various compositions of the ISA drug, specifically, free ISA, the ISA−Ca^+2 salt, and ISA encapsulated in a nanoparticle (“ISA NP”). As discussed supra, the ISA NP contains Ca^+2 to lower the solubility of the bisphosphonate and increase its entrapment efficiency. For comparison purposes, the RAW 264 cells were also treated with blank NP, i.e., nanoparticles with no drug embedded therein. The cells were then analyzed 48 hours after treatment. Analysis included cell counting by Coulter counter and cell viability by tryphan blue exclusion assay.
The effect of ISA compositions on the growth of RAW 264 cells in vitro is illustrated in FIG. 6. The cell proliferation in buffer only was termed as 100%. The data represented is the mean with a ±SD (6≦N≦27).
The following formulations were evaluated: Ca^+2-ISA salt, Ca^+2-ISA salt+PVA, and Ca^+2-ISA adsorbed on the surface of a blank NP. The cell proliferation in the buffer only was termed as 100%. N.B., a lower column represents higher potency.

Structure (SMILES)	mean neointimal formation [1]	growth of RAW 264 cells (RAW 264 cells)
O=P(O)(O)C(Cl)(Cl)P(=O)(O)O [free clodronate in solution, (dichloromethylene) diphosphonic acid]	marked neointimal formation	–
Nc1nccc[n+]1CC(P(=O)([O-])O)P(=O)(O)O (centres unmarked) [free ISA, 2-(2-aminopyrimidinio) ethylidene-1,1-bisphosphonic acid betaine]	–	only a minor effect
